Source: patent publication US20020169101A1, “Treatment of sexual dysfunction” (priority 1999, published 2002)
Where two headings read alike, the source gives them in different places.

How the values were obtained:
human NMB receptor (BB1) = target: T1, human NMB receptor (BB1) (Homo sapiens, UniProt P28336); assay: BB1 binding assay ([125I][Tyr4]bombesin displacement, CHO-K1 membranes)
T1 construct: expressed in transfected cells; membranes prepared from the cells
Experimental: (§1) In the following experiments, measurement of BB1 and BB2 binding was as follows. CHO-K1 cells stably expressing cloned human NMB (for (BB1 assay) and GRP receptors (for BB2 assay) were routinely grown in Ham's F12 culture medium supplemented with 10% foetal calf serum and 2 mM glutamine. For binding experiments, cells were harvested by trypsinization, and stored frozen at −70° C. in Ham's F12 culture medium containing 5% DMSO until required. On the day of use, cells were thawed rapidly, diluted with an excess of culture medium, and centrifuged for 5 minutes at 2000 g. Cells were resuspended in 50 mM Tris-HCl assay buffer (pH 7.4 at 21° C., containing 0.02% BSA, 40 μg/mL bacitracin, 2 μg/mL chymostatin, 4 μg/mL leupeptin, and 2 μM phosphoramidon), counted, and polytronned (setting 5, 10 sec) before centrifuging for 10 minutes at 28,000 g. The final pellet was resuspended in assay buffer to a final cell concentration of 1.5×10^5/mL. For binding assays, […] aliquots of membranes were incubated with [^125I][Tyr^4]bombesin (<0.1 nM) in the presence and absence of test compounds (final assay volume 250 μL) for 60 minutes and 90 minutes for NMB and GRP receptors, respectively. Nonspecific binding was defined by 1 μM bombesin. Assays were terminated by rapid filtration under vacuum onto Whatman GF/C filters presoaked in 0.2% PEI for >2 hours, and washed 50 mM Tris-HCl (pH 6.9 at 21° C.; 6×1 mL). Radioactivity bound was determined using a gamma counter.
(§2) All competition data was analysed using nonlinear regression utilizing iterative curve-plotting procedures in Prism® (GraphPad Software Inc., San Diego, USA). IC50 values were corrected to Ki values using the Cheng-Prusoff equation (Cheng Y., Prusoff W. H., Biochem. Pharmacol. 22: 3099-3108, 1973). obtained are listed in Table 1.

human GRP receptor (BB2) = target: T2, human GRP receptor (BB2) (Homo sapiens, UniProt P30550); assay: BB2 binding assay ([125I][Tyr4]bombesin displacement, CHO-K1 membranes)
T2 construct: expressed in transfected cells; membranes prepared from the cells
Experimental: as §1, §2

[1] = second 'TABLE 4', N-terminal urethane derivatives of Intermediate III-7
[2] = Table 3, N-acyl derivatives of Intermediate III-7

T1 sequence (P28336 whole entry): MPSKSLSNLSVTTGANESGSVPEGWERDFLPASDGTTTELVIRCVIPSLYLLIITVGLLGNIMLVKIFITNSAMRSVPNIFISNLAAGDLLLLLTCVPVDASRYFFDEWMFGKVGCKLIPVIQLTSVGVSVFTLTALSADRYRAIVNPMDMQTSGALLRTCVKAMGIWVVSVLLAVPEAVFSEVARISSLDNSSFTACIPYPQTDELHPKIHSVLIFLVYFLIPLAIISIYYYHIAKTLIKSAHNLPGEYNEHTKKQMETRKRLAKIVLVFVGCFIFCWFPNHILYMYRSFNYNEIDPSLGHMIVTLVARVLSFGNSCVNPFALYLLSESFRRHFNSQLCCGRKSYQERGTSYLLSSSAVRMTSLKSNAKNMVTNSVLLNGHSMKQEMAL
T2 sequence (P30550 whole entry): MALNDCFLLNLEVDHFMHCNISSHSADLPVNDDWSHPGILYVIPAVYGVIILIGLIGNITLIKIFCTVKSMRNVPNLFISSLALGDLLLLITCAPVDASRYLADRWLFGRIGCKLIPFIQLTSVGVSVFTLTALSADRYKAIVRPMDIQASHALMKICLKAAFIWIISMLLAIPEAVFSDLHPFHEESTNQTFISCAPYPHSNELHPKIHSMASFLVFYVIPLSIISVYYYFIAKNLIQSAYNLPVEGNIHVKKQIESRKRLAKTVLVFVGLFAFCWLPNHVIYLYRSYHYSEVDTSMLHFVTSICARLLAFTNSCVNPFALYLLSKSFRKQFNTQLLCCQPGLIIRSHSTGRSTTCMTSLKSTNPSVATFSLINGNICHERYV

IC50 (human NMB receptor (BB1)) | IC50 (human NMB receptor (BB1); [1]) | IC50 (human GRP receptor (BB2); [1]) | Compound | further results
393 nM | – | – | Cc1cccc(S(=O)(=O)N[C@@](C)(Cc2c[nH]c3ccccc23)C(=O)NCC2(c3ccccn3)CCCCC2)c1 [Example 131] | IC50 (human GRP receptor (BB2)): 1020 nM
– | 1350 nM | > 10000 nM | C[C@@](Cc1c[nH]c2ccccc12)(NC(=O)OCc1cccc(Oc2ccccc2)c1)C(=O)NCC1(c2ccccn2)CCCCC1 [Example 106, {(S)-2-(1H-Indol-3-yl)-1-methyl-1-[(1-pyridin-2-yl-cyclohexylmethyl)-carbamoyl]-ethyl}-carbamic acid 3-phenoxy-benzyl ester] | –
– | 239 nM | > 10000 nM | C[C@@](Cc1c[nH]c2ccccc12)(NC(=O)OCc1cccc2ccccc12)C(=O)NCC1(c2ccccn2)CCCCC1 [Example 87, {(S)-2-(1H-Indol-3-yl)-1-methyl-1-[(1-pyridin-2-yl-cyclohexylmethyl)-carbamoyl]-ethyl}-carbamic acid naphthalen-1-ylmethyl ester] | –
– | 182 nM | > 10000 nM | C[C@@](Cc1c[nH]c2ccccc12)(NC(=O)OCc1cccc(C(F)(F)F)c1)C(=O)NCC1(c2ccccn2)CCCCC1 [Example 107, {(S)-2-(1H-Indol-3-yl)-1-methyl-1-[(1-pyridin-2-yl-cyclohexylmethyl)-carbamoyl]-ethyl}-carbamic acid 3-trifluoromethyl-benzyl ester] | –
– | 751 nM | > 10000 nM | Cc1ccccc1COC(=O)N[C@@](C)(Cc1c[nH]c2ccccc12)C(=O)NCC1(c2ccccn2)CCCCC1 [Example 97, {(S)-2-(1H-Indol-3-yl)-1-methyl-1-[(1-pyridin-2-yl-cyclohexylmethyl)-carbamoyl]-ethyl}-carbamic acid 2-methyl-benzyl ester] | –
– | 624 nM | > 10000 nM | C[C@@](Cc1c[nH]c2ccccc12)(NC(=O)OCc1ccccc1Cl)C(=O)NCC1(c2ccccn2)CCCCC1 [Example 95, {(S)-2-(1H-Indol-3-yl)-1-methyl-1-[(1-pyridin-2-yl-cyclohexylmethyl)-carbamoyl]-ethyl}-carbamic acid 2-chloro-benzyl ester] | –
166 nM | – | – | C[C@@](Cc1c[nH]c2ccccc12)(NS(=O)(=O)c1ccccc1-c1ccccc1)C(=O)NCC1(c2ccccn2)CCCCC1 [Example 154, (S)-2-(biphenyl-2-sulfonylamino)-3-(1H-indol-3-yl)-2-methyl-N-(1-pyridin-2-yl-cyclohexylmethyl)-propionamide] | IC50 (human GRP receptor (BB2)): > 10000 nM
– | – | – | Cc1ccc(CC(=O)N[C@@](C)(Cc2c[nH]c3ccccc23)C(=O)NCC2(c3ccccn3)CCCCC2)cc1 [Example 50, (S)-3-(1H-Indol-3-yl)-2-methyl-N-(1-pyridin-2-yl-cyclohexylmethyl)-2-(2-p-tolyl-ethanoylamino)-propionamide] | IC50 (human NMB receptor (BB1); [2]): 944 nM; IC50 (human GRP receptor (BB2); [2]): > 10000 nM
– | – | – | Cc1cccc(C(=O)N[C@@](C)(Cc2c[nH]c3ccccc23)C(=O)NCC2(c3ccccn3)CCCCC2)c1 [Example 43, N—{(S)-2-(1H-Indol-3-yl)-1-methyl-1-[(1-pyridin-2-yl-cyclohexylmethyl)-carbamoyl]-ethyl}-3-methyl-benzamide] | IC50 (human NMB receptor (BB1); [2]): 2350 nM; IC50 (human GRP receptor (BB2); [2]): > 10000 nM
– | 1100 nM | > 10000 nM | C[C@@](Cc1c[nH]c2ccccc12)(NC(=O)OCc1ccc(C(F)(F)F)cc1)C(=O)NCC1(c2ccccn2)CCCCC1 [Example 101, {(S)-2-(1H-Indol-3-yl)-1-methyl-1-[(1-pyridin-2-yl-cyclohexylmethyl)-carbamoyl]-ethyl}-carbamic acid 4-trifluoromethyl-benzyl ester] | –
– | 1080 nM | > 10000 nM | Cc1ccc(COC(=O)N[C@@](C)(Cc2c[nH]c3ccccc23)C(=O)NCC2(c3ccccn3)CCCCC2)cc1 [Example 108, {(S)-2-(1H-Indol-3-yl)-1-methyl-1-[(1-pyridin-2-yl-cyclohexylmethyl)-carbamoyl]-ethyl}-carbamic acid 4-methyl-benzyl ester] | –
373 nM | – | – | C[C@@](Cc1c[nH]c2ccccc12)(NS(=O)(=O)c1ccc(Cl)cc1)C(=O)NCC1(c2ccccn2)CCCCC1 [Example 116] | IC50 (human GRP receptor (BB2)): 4390 nM
– | 17 nM | 612 nM | C[C@@](Cc1c[nH]c2ccccc12)(NC(=O)OCc1cccc([N+](=O)[O-])c1)C(=O)NCC1(c2ccccn2)CCCCC1 [Example 99, {(S)-2-(1H-Indol-3-yl)-1-methyl-1-[(1-pyridin-2-yl-cyclohexylmethyl)-carbamoyl]-ethyl}-carbamic acid 3-nitro-benzyl ester] | –
– | 1610 nM | > 10000 nM | COc1ccc(COC(=O)N[C@@](C)(Cc2c[nH]c3ccccc23)C(=O)NCC2(c3ccccn3)CCCCC2)cc1 [Example 92, {(S)-2-(1H-Indol-3-yl)-1-methyl-1-[(1-pyridin-2-yl-cyclohexylmethyl)-carbamoyl]-ethyl}-carbamic acid 4-methoxy-benzyl ester] | –
186 nM | – | – | C[C@@](Cc1c[nH]c2ccccc12)(NS(=O)(=O)Cc1ccccc1)C(=O)NCC1(c2ccccn2)CCCCC1 [Example 111, (S)-3-(1H-indol-3-yl)-2-methyl-2-phenylmethanesulfonylamino-N-(1-pyridin-2-yl-cyclohexylmethyl)-propionamide] | IC50 (human GRP receptor (BB2)): > 10000 nM
– | – | – | C[C@@](Cc1c[nH]c2ccccc12)(NC(=O)c1ccc(S(C)(=O)=O)cc1)C(=O)NCC1(c2ccccn2)CCCCC1 [Example 37, N—{(S)-2-(1H-Indol-3-yl)-1-methyl-1-[(1-pyridin-2-yl-cyclohexylmethyl)-carbamoyl]-ethyl}-4-methanesulfonyl-benzamide] | IC50 (human NMB receptor (BB1); [2]): 2270 nM; IC50 (human GRP receptor (BB2); [2]): > 10000 nM

IC50 (human NMB receptor (BB1)) | IC50 (human NMB receptor (BB1); [1]) | IC50 (human GRP receptor (BB2); [1]) | Compound | further results
76 nM | – | – | Cc1ccc(Oc2ccccc2)c(S(=O)(=O)N[C@@](C)(Cc2c[nH]c3ccccc23)C(=O)NCC2(c3ccccn3)CCCCC2)c1 [Example 152, (S)-3-(1H-indol-3-yl)-2-methyl-2-(5-methyl-2-phenoxy-benzenesulfonylamino)-N-(1-pyridin-2-yl-cyclohexylmethyl)-propionamide] | IC50 (human GRP receptor (BB2)): > 10000 nM
– | 1990 nM | > 10000 nM | CC(C)(C)c1ccc(COC(=O)N[C@@](C)(Cc2c[nH]c3ccccc23)C(=O)NCC2(c3ccccn3)CCCCC2)cc1 [Example 98, {(S)-2-(1H-Indol-3-yl)-1-methyl-1-[(1-pyridin-2-yl-cyclohexylmethyl)-carbamoyl]-ethyl}-carbamic acid 4-tert-butyl-benzyl ester] | –
– | – | – | COc1ccccc1CC(=O)N[C@@](C)(Cc1c[nH]c2ccccc12)C(=O)NCC1(c2ccccn2)CCCCC1 [Example 85, (S)-3-(1H-Indol-3-yl)-2-[2-(2-methoxy-phenyl)-ethanoylamino]-2-methyl-N-(1-pyridin-2-yl-cyclohexylmethyl)-propionamide] | IC50 (human NMB receptor (BB1); [2]): 1330 nM; IC50 (human GRP receptor (BB2); [2]): 2480 nM
– | – | – | Dimethylamino-N—{(S)-2-(1H-indol-3-yl)-1-methyl-1-[(1-pyridin-2-yl-cyclohexyl-methyl)-carbamoyl]-ethyl}-benzamide [Example 42] | IC50 (human GRP receptor (BB2); [2]): > 10000 nM
– | – | – | Cc1ccc(C(=O)N[C@@](C)(Cc2c[nH]c3ccccc23)C(=O)NCC2(c3ccccn3)CCCCC2)cc1 [Example 33, N—{(S)-2-(1H-Indol-3-yl)-1-methyl-1-[(1-pyridin-2-yl-cyclohexylmethyl)-carbamoyl]-ethyl}-4-methyl-benzamide] | IC50 (human GRP receptor (BB2); [2]): > 10000 nM
404 nM | – | – | C[C@@](Cc1c[nH]c2ccccc12)(NS(=O)(=O)c1ccc(Cl)s1)C(=O)NCC1(c2ccccn2)CCCCC1 [Example 128] | –
– | – | – | CC(Cc1c[nH]c2ccccc12)(NS(=O)(=O)c1cc(Cl)sc1Cl)C(=O)NCC1(c2ccccn2)CCCCC1 (centres unmarked) [Example 157] | IC50 (human GRP receptor (BB2)): > 10000 nM
167 nM | – | – | COC(=O)c1sccc1S(=O)(=O)N[C@@](C)(Cc1c[nH]c2ccccc12)C(=O)NCC1(c2ccccn2)CCCCC1 [Example 140] | –
– | – | – | C[C@@](Cc1c[nH]c2ccccc12)(NC(=O)c1ccccc1)C(=O)NCC1(c2ccccn2)CCCCC1 [Example 32, N—{(S)-2-(1H-Indol-3-yl)-1-methyl-1-[(1-pyridin-2-yl-cyclohexylmethyl)-carbamoyl]-ethyl}-benzamide] | IC50 (human GRP receptor (BB2); [2]): > 10000 nM
492 nM | – | – | CCCCc1ccc(S(=O)(=O)N[C@@](C)(Cc2c[nH]c3ccccc23)C(=O)NCC2(c3ccccn3)CCCCC2)cc1 [Example 168] | –
– | – | – | C[C@@](Cc1c[nH]c2ccccc12)(NC(=O)c1ccco1)C(=O)NCC1(c2ccccn2)CCCCC1 [Example 60] | IC50 (human NMB receptor (BB1); [2]): 1200 nM
216 nM | – | – | C[C@@](Cc1c[nH]c2ccccc12)(NS(=O)(=O)c1ccc(Cl)c(Cl)c1)C(=O)NCC1(c2ccccn2)CCCCC1 [Example 125] | –
534 nM | – | – | C[C@@](Cc1c[nH]c2ccccc12)(NS(=O)(=O)c1ccc(-c2ccon2)s1)C(=O)NCC1(c2ccccn2)CCCCC1 [Example 141] | –
406 nM | – | – | CC(C)(C)c1ccc(S(=O)(=O)N[C@@](C)(Cc2c[nH]c3ccccc23)C(=O)NCC2(c3ccccn3)CCCCC2)cc1 [Example 164] | –
322 nM | – | – | C[C@@](Cc1c[nH]c2ccccc12)(NS(=O)(=O)c1ccc2ccccc2c1)C(=O)NCC1(c2ccccn2)CCCCC1 [Example 118] | –
